# In PubChem BioAssay AID1963844 (Molecular Pharmacology Branch, DTP, NCI, 2024):
# Test system: 422866-222-R5-J1-PDC complex spheroid viability
# Assay: Anticancer human tumor 422866-222-R5-J1-PDC patient-derived pancreatic adenocarcinoma cell line growth inhibition [POLQ]
# Conditions: for IC50: curve of first compound; for viability, T/C: stronger effect = lower value
# In short: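 Patient-derived tumour cells were co-cultured with HUVEC and mesenchymal stem cells as multicellular spheroids at 37 °C. They were treated with POLQ inhibitors (novobiocin, ART-558, RP6685) alone or combined with other agents. Top concentrations were at or near clinical Cmax (otherwise 10 microM; SN-38 at 1 microM), decreasing in half-log steps.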
# [1] = second compound 0.0316 µM, first compound 0.0316 µM
# [2] = second compound 0.0316 µM, first compound 0.1 µM
# [3] = second compound 0.0316 µM, first compound 0.316 µM
# [4] = second compound 0.0316 µM, first compound 1 µM
# [5] = second compound 0.0316 µM, first compound 3.16 µM
# [6] = second compound 0.0316 µM, first compound 10 µM
# [7] = second compound 0.1 µM, first compound 0.0316 µM
# [8] = second compound 0.1 µM, first compound 0.1 µM
# [9] = second compound 0.1 µM, first compound 0.316 µM
# [10] = second compound 0.1 µM, first compound 1 µM
# [11] = second compound 0.1 µM, first compound 3.16 µM
# [12] = second compound 0.1 µM, first compound 10 µM
# [13] = second compound 0.316 µM, first compound 0.0316 µM
# [14] = second compound 0.316 µM, first compound 0.1 µM
# [15] = second compound 0.316 µM, first compound 0.316 µM
# [16] = second compound 0.316 µM, first compound 1 µM
# [17] = second compound 0.316 µM, first compound 3.16 µM
# [18] = second compound 0.316 µM, first compound 10 µM
# [19] = second compound 1 µM, first compound 0.0316 µM
# [20] = second compound 1 µM, first compound 0.1 µM
# [21] = second compound 1 µM, first compound 0.316 µM
# [22] = second compound 1 µM, first compound 1 µM
# [23] = second compound 1 µM, first compound 3.16 µM
# [24] = second compound 1 µM, first compound 10 µM
# [25] = second compound 3.16 µM, first compound 0.0316 µM
# [26] = second compound 3.16 µM, first compound 0.1 µM
# [27] = second compound 3.16 µM, first compound 0.316 µM
# [28] = second compound 3.16 µM, first compound 1 µM
# [29] = second compound 3.16 µM, first compound 3.16 µM
# [30] = second compound 3.16 µM, first compound 10 µM
# [31] = second compound 10 µM, first compound 0.0316 µM
# [32] = second compound 10 µM, first compound 0.1 µM
# [33] = second compound 10 µM, first compound 0.316 µM
# [34] = second compound 10 µM, first compound 1 µM
# [35] = second compound 10 µM, first compound 3.16 µM
# [36] = second compound 10 µM, first compound 10 µM
# 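Note: spheroids exposed to compounds for one week before readout.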
# 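Throughout, for viability, T/C: percent of DMSO vehicle wells luminescence so 100% = untreated viability.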
structure (smiles),measurement,setting,value
CC1COCCN1c1cc(C2(O)CC3CCC(C2)O3)c2cnn(-c3ccn[nH]3)c2n1 (stereo not given) + Nc1ccc(C#CCN(C(=O)Cc2ncc(C(F)(F)F)cc2C(F)(F)F)c2ccc(F)cc2)nn1,IC50,second compound 0.0316 µM,> 10 µM
same,IC50,second compound 0.1 µM,< 0.0316 µM
same,IC50,second compound 0.316 µM,< 0.0316 µM
same,IC50,second compound 1 µM,> 10 µM
same,IC50,second compound 3.16 µM,10 µM
same,IC50,second compound 10 µM,< 0.0316 µM
same,"viability, T/C",[1],72%
same,"viability, T/C",[2],39.4%
same,"viability, T/C",[3],40.7%
same,"viability, T/C",[4],74.5%
same,"viability, T/C",[5],73.5%
same,"viability, T/C",[6],61.1%
same,"viability, T/C",[7],58.2%
same,"viability, T/C",[8],39.4%
same,"viability, T/C",[9],48.5%
same,"viability, T/C",[10],71.6%
same,"viability, T/C",[11],83.6%
same,"viability, T/C",[12],63.8%
same,"viability, T/C",[13],61.3%
same,"viability, T/C",[14],37%
same,"viability, T/C",[15],42.2%
same,"viability, T/C",[16],74.8%
same,"viability, T/C",[17],73.8%
same,"viability, T/C",[18],59.9%
same,"viability, T/C",[19],64.3%
same,"viability, T/C",[20],39.5%
same,"viability, T/C",[21],37.3%
same,"viability, T/C",[22],71.4%
same,"viability, T/C",[23],65.5%
same,"viability, T/C",[24],57.9%
same,"viability, T/C",[25],97.4%
same,"viability, T/C",[26],38.7%
same,"viability, T/C",[27],36.9%
same,"viability, T/C",[28],77.2%
same,"viability, T/C",[29],63.2%
same,"viability, T/C",[30],69%
same,"viability, T/C",[31],60.7%
same,"viability, T/C",[32],41.5%
same,"viability, T/C",[33],47.1%
same,"viability, T/C",[34],83.8%
same,"viability, T/C",[35],65.3%
same,"viability, T/C",[36],63.4%
CCc1cc2c(N3CCc4c(cc(Cn5ccnc5)cc4-c4cn(C)nc4C(F)(F)F)C3=O)cc(C)nc2c(OC)n1 + Nc1ccc(C#CCN(C(=O)Cc2ncc(C(F)(F)F)cc2C(F)(F)F)c2ccc(F)cc2)nn1,IC50,second compound 0.0316 µM,> 10 µM
same,IC50,second compound 0.1 µM,> 10 µM
same,IC50,second compound 0.316 µM,> 10 µM
same,IC50,second compound 1 µM,> 10 µM
same,IC50,second compound 3.16 µM,> 10 µM
same,IC50,second compound 10 µM,> 10 µM
same,"viability, T/C",[1],79.3%
same,"viability, T/C",[2],88.6%
same,"viability, T/C",[3],96%
same,"viability, T/C",[4],115%
same,"viability, T/C",[5],103%
same,"viability, T/C",[6],95.5%
same,"viability, T/C",[7],105%
same,"viability, T/C",[8],97.4%
same,"viability, T/C",[9],102%
same,"viability, T/C",[10],87.1%
same,"viability, T/C",[11],98.7%
same,"viability, T/C",[12],99.7%
same,"viability, T/C",[13],99.5%
same,"viability, T/C",[14],86.3%
same,"viability, T/C",[15],94.8%
same,"viability, T/C",[16],88.3%
same,"viability, T/C",[17],118%
same,"viability, T/C",[18],100%
same,"viability, T/C",[19],95.6%
same,"viability, T/C",[20],75%
same,"viability, T/C",[21],87.7%
same,"viability, T/C",[22],99.7%
same,"viability, T/C",[23],94.9%
same,"viability, T/C",[24],96.2%
same,"viability, T/C",[25],81.2%
same,"viability, T/C",[26],93.6%
same,"viability, T/C",[27],95.2%
same,"viability, T/C",[28],99.2%
same,"viability, T/C",[29],122%
same,"viability, T/C",[30],107%
same,"viability, T/C",[31],102%
same,"viability, T/C",[32],112%
same,"viability, T/C",[33],106%
same,"viability, T/C",[34],83.7%
same,"viability, T/C",[35],102%
same,"viability, T/C",[36],113%
CCc1cc2c(N3CCc4c(cc(Cn5ccnc5)cc4-c4cn(C)nc4C(F)(F)F)C3=O)ccnc2c(OC)n1 + Nc1ccc(C#CCN(C(=O)Cc2ncc(C(F)(F)F)cc2C(F)(F)F)c2ccc(F)cc2)nn1,IC50,second compound 0.0316 µM,> 10 µM
same,IC50,second compound 0.1 µM,> 10 µM
same,IC50,second compound 0.316 µM,> 10 µM
same,IC50,second compound 1 µM,> 10 µM
same,IC50,second compound 3.16 µM,> 10 µM
same,IC50,second compound 10 µM,> 10 µM
same,"viability, T/C",[1],82.5%
same,"viability, T/C",[2],102%
same,"viability, T/C",[3],103%
same,"viability, T/C",[4],119%
same,"viability, T/C",[5],89.2%
same,"viability, T/C",[6],126%
same,"viability, T/C",[7],79.7%
same,"viability, T/C",[8],103%
same,"viability, T/C",[9],112%
same,"viability, T/C",[10],109%
same,"viability, T/C",[11],95.6%
same,"viability, T/C",[12],120%
same,"viability, T/C",[13],85.7%
same,"viability, T/C",[14],85.2%
same,"viability, T/C",[15],79.5%
same,"viability, T/C",[16],128%
same,"viability, T/C",[17],98.9%
same,"viability, T/C",[18],98.3%
same,"viability, T/C",[19],82.8%
same,"viability, T/C",[20],77.3%
same,"viability, T/C",[21],107%
same,"viability, T/C",[22],101%
same,"viability, T/C",[23],113%
same,"viability, T/C",[24],107%
same,"viability, T/C",[25],102%
same,"viability, T/C",[26],90.7%
same,"viability, T/C",[27],92%
same,"viability, T/C",[28],92.7%
same,"viability, T/C",[29],114%
same,"viability, T/C",[30],115%
same,"viability, T/C",[31],92.8%
same,"viability, T/C",[32],115%
same,"viability, T/C",[33],93.7%
same,"viability, T/C",[34],102%
same,"viability, T/C",[35],110%
same,"viability, T/C",[36],106%
COc1cc2cc(C(=O)CCC(=O)O)sc2cc1OC + Nc1ccc(C#CCN(C(=O)Cc2ncc(C(F)(F)F)cc2C(F)(F)F)c2ccc(F)cc2)nn1,IC50,second compound 0.0316 µM,> 10 µM
same,IC50,second compound 0.1 µM,> 10 µM
same,IC50,second compound 0.316 µM,> 10 µM
same,IC50,second compound 1 µM,> 10 µM
same,IC50,second compound 3.16 µM,> 10 µM
same,IC50,second compound 10 µM,> 10 µM
same,"viability, T/C",[1],84%
same,"viability, T/C",[2],97.2%
same,"viability, T/C",[3],94.5%
same,"viability, T/C",[4],115%
same,"viability, T/C",[5],81.2%
same,"viability, T/C",[6],89.1%
same,"viability, T/C",[7],87.3%
same,"viability, T/C",[8],89.9%
same,"viability, T/C",[9],87.5%
same,"viability, T/C",[10],95.3%
same,"viability, T/C",[11],84%
same,"viability, T/C",[12],103%
same,"viability, T/C",[13],112%
same,"viability, T/C",[14],104%
same,"viability, T/C",[15],86.4%
same,"viability, T/C",[16],90.8%
same,"viability, T/C",[17],86.2%
same,"viability, T/C",[18],109%
same,"viability, T/C",[19],99.6%
same,"viability, T/C",[20],87.1%
same,"viability, T/C",[21],86.9%
same,"viability, T/C",[22],84.5%
same,"viability, T/C",[23],94.2%
same,"viability, T/C",[24],136%
same,"viability, T/C",[25],108%
same,"viability, T/C",[26],98.6%
same,"viability, T/C",[27],95%
same,"viability, T/C",[28],94.9%
same,"viability, T/C",[29],92.2%
same,"viability, T/C",[30],111%
same,"viability, T/C",[31],98%
same,"viability, T/C",[32],91.4%
same,"viability, T/C",[33],93.5%
same,"viability, T/C",[34],89.9%
same,"viability, T/C",[35],100%
same,"viability, T/C",[36],104%
O=C(Nc1ccc(O)c(NS(=O)(=O)c2ccc(F)cc2)c1)c1ccc(-c2ccccc2)cc1 + Nc1ccc(C#CCN(C(=O)Cc2ncc(C(F)(F)F)cc2C(F)(F)F)c2ccc(F)cc2)nn1,IC50,second compound 0.0316 µM,> 10 µM
same,IC50,second compound 0.1 µM,> 10 µM
same,IC50,second compound 0.316 µM,> 10 µM
same,IC50,second compound 1 µM,> 10 µM
same,IC50,second compound 3.16 µM,> 10 µM
same,IC50,second compound 10 µM,> 10 µM
same,"viability, T/C",[1],98.8%
same,"viability, T/C",[2],84.9%
same,"viability, T/C",[3],81.6%
same,"viability, T/C",[4],86.9%
same,"viability, T/C",[5],83.7%
same,"viability, T/C",[6],113%
same,"viability, T/C",[7],105%
same,"viability, T/C",[8],94.3%
same,"viability, T/C",[9],97.1%
same,"viability, T/C",[10],90.5%
same,"viability, T/C",[11],99.8%
same,"viability, T/C",[12],123%
same,"viability, T/C",[13],88.7%
same,"viability, T/C",[14],90%
same,"viability, T/C",[15],94.2%
same,"viability, T/C",[16],89.9%
same,"viability, T/C",[17],97.3%
same,"viability, T/C",[18],116%
same,"viability, T/C",[19],107%
same,"viability, T/C",[20],84.5%
same,"viability, T/C",[21],92.6%
same,"viability, T/C",[22],87.9%
same,"viability, T/C",[23],88.6%
same,"viability, T/C",[24],117%
same,"viability, T/C",[25],107%
same,"viability, T/C",[26],99%
same,"viability, T/C",[27],99.6%
same,"viability, T/C",[28],78.7%
same,"viability, T/C",[29],103%
same,"viability, T/C",[30],109%
same,"viability, T/C",[31],105%
same,"viability, T/C",[32],85.2%
same,"viability, T/C",[33],80.8%
same,"viability, T/C",[34],93.8%
same,"viability, T/C",[35],101%
same,"viability, T/C",[36],102%
